Results published in publication PMC7891696, “The molecular targets of ivermectin and lotilaner in the human louse Pediculus humanus humanus: New prospects for the treatment of pediculosis” (PLoS Pathogens, 2021).
Where two headings read alike, the source gives them in different places.

Experiments:
Phh-GluCl = Phh-GluCl (Pediculus humanus humanus, UniProt A0A894TL71); assay: Two-electrode voltage-clamp on Xenopus laevis oocytes expressing Phh-GluCl; format: cell-based
Procedure: (§1) Defolliculated Xenopus laevis oocytes were purchased from Ecocyte Bioscience and maintained in incubation solution (100 mM NaCl, 2 mM KCl, 1.8 mM CaCl2.2H2O, 1 mM MgCl2.6H2O, 5 mM HEPES, 2.5 mM C3H3NaO3, pH 7.5 supplemented with penicillin 100 U/mL and streptomycin 100 μg/mL) at 19°C. Each oocyte was microinjected with 57 ng of cRNA encoding Phh-GluCl or Phh-RDL using a Drummond nanoject II microinjector. Three to five days after cRNA injection, two-electrode voltage-clamp recordings were performed with an oocyte clamp OC-725C amplifier (Warner instrument) at a holding potential of -80mV or -60 mV to assess the expression of the GluCl or RDL channels. Currents were recorded and analyzed using the pCLAMP 10.4 package (Molecular Devices). Concentration-response relationships for agonists were carried out by challenging oocytes with 10 s applications of increasing concentrations of compounds. […] For Phh-GluCl, the dose-response relationship for ivermectin was performed by applying each concentration of ivermectin for 20–30 s. Each oocyte received only one ivermectin concentration (≤ 30 nM) followed with a high ivermectin concentration (≥ 100 nM). Data were normalized to a first 100 μM glutamate apllication. […] Concentration-response curves for agonists were fitted with the following equation: Y=100/1+10^H(logEC50−X)

Phh-RDL [1] = target: T1, Phh-RDL (Pediculus humanus humanus, UniProt A0A894T8E6); assay: Two-electrode voltage-clamp on Xenopus laevis oocytes expressing Phh-RDL; format: cell-based; settings: for concentration at which GABA-elicited currents were completely inhibited: 100 μM GABA
Procedure: as §1
Where Y is the normalized response, H is the Hill slope and X is the logarithm of concentration. The same equation was used for the concentration-response curves for antagonists by replacing logEC50 by logIC50. Results are expressed as mean +/- SEM and statistical analysis were performed using One-Way ANOVA with Tukey’s Multiple Comparisons Test. […] The corresponding concentration response curves were fitted using the following four parameter Hill equation: Y=Bottom+(Top−Bottom)/1+10^H(LogEC50−X)

nits of human body lice = assay: Nit hatching test; format: in vivo, Pediculus humanus humanus; settings: 100 μM, hatching between six and nine days after application, compared with water and 1% DMSO
Procedure: (§2) The colony of human body lice (Pediculus humanus humanus) were provided by Kosta Y. Mumcuoglu from the Kuvin Center for the Study of Infectious and Tropical Diseases, Hebrew University-Hadassah Medical School, Jerusalem, Israel. This laboratory-reared colony adapted to rabbit blood were fed four times per week for 20–30 min on rabbits and maintained at 30 ± 1°C and 60–70% relative humidity without exposure to any drugs. […] Nits (50 to 190 per condition) were incubated with lotilaner or ivermectin and hatching was monitored between six and nine days. Water and solution of 1% DMSO were used as negative controls. Pictures were recorded with a Motic Digital Microscope 143 Series and the Motic Image Plus 3.0 software.

[2] = system: human adult body lice (Pediculus humanus humanus); assay: Toxicity bioassay on adult human body lice (filter paper contact, survival and immobilization); format: in vivo; settings: for lice killed or immobilized (death or knockdown rate): adult lice n = 44
Procedure: as §2

Phh-RDL [3] = target: T1, Phh-RDL; assay: Two-electrode voltage-clamp on Xenopus laevis oocytes expressing Phh-RDL; format: cell-based; settings: 1 μM ivermectin, 90 s application
[4] = antagonism of 100 μM GABA current, 90 s preincubation, read-out: IC50

T1 sequence (A0A894T8E6 entry or part of it): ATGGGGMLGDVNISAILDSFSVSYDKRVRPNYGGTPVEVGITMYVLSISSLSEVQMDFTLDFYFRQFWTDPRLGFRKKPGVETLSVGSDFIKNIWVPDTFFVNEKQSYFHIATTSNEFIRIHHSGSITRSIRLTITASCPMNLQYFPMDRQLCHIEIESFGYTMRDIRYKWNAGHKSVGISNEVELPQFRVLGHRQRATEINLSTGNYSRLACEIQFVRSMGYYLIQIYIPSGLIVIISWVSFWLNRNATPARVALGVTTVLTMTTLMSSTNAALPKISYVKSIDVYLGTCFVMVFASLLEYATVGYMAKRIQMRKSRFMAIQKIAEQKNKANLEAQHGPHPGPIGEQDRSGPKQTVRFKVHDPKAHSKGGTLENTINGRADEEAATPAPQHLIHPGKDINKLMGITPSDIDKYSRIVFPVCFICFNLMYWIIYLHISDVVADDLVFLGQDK
Sequence of Phh-GluCl (A0A894TL71 entry or part of it): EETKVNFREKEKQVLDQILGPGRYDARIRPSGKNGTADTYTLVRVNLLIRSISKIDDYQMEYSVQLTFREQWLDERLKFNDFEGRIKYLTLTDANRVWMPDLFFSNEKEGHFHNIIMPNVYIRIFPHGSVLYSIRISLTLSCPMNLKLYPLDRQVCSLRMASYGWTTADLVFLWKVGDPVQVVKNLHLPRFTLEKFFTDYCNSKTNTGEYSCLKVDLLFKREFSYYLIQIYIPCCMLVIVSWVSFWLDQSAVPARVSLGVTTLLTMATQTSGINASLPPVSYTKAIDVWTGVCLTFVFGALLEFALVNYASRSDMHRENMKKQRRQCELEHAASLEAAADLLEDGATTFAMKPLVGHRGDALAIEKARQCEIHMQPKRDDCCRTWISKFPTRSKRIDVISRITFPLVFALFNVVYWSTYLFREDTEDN

With `Cc1cc(C2=NO[C@@](c3cc(Cl)c(Cl)c(Cl)c3)(C(F)(F)F)C2)sc1C(=O)NCC(=O)NCC(F)(F)F` [lotilaner] the “concentration without effect on Phh-GluCl (30 μM) as multiple of the IC50 for Phh-RDL” value (Phh-GluCl; 30 μM) was 737 fold, the “agonist effect (current elicited)” value (Phh-GluCl; 1 to 30 μM) was “did not elicit any current” and the “inhibitory effect on glutamate-evoked currents” value (Phh-GluCl; 1 to 30 μM, co-application with 100 μM glutamate) was “no significant inhibitory effect”. The agonist effect (Phh-RDL [1]) was “no agonist effect”, the type of inhibition (Phh-RDL [1]; competitive assay, GABA dose-response with 1 nM and 10 nM lotilaner) was “non-competitive antagonist” and the IC50 (Phh-RDL [1]; read-out: IC50) was 40.7 nM. For the same compound, the “effect on nit hatching” value (nits of human body lice) was “absence of efficacy”, the lice killed ([2]; 1 μM, 24 h, adult lice) was 14% and the “death rate of lice” value ([2]; 100 μM, 3 h, adult lice) was “death of all lice”.

In the case of ivermectin, the “lowest concentration at which slow activation of the receptor was observed” value (Phh-GluCl) is reported as 10 nM, the “reversibility of the agonist effect” value (Phh-GluCl) is reported as “not reversible” and the “current as % of the 1 mM glutamate-elicited current” value (Phh-GluCl; 1 μM ivermectin) is reported as 86.5 +/- 8.2%. For the same compound, the EC50 (Phh-GluCl; agonist, normalized to a first 100 μM glutamate application, read-out: EC50) was 78.5 ± 30.2 nM, the “IC50 on RDL receptor relative to EC50 for Phh-GluCl” value (Phh-RDL [1]) was 4 fold and the “effect on GABA current at low concentration (potentiation)” value (Phh-RDL [1]; 100 nM ivermectin coapplied with 3 μM GABA) was “increased the current amplitude”. The “mode of action at higher concentration” value (Phh-RDL [1]; 1 μM ivermectin) was “both an agonistic and antagonistic effect”, the “concentration at which GABA-elicited currents were completely inhibited” value (Phh-RDL [1]) was 3 µM and the “reversibility of the currents elicited” value (Phh-RDL [1]; 0.3 to 30 μM, 90 seconds) was “not reversible”. The IC50 (Phh-RDL [1]; [4]) was 342 ± 14 nM, the “effect on nit hatching” value (nits of human body lice) was “absence of efficacy” and the “maximum agonist effect as % of the 1 mM response” value (Phh-RDL [3]) was 7.9 +/- 1.3%. The “death rate of lice” value ([2]; 10 μM, 24 h, adult lice) was 100%, the “death rate of lice” value ([2]; 100 μM, 3 h, adult lice) was 30% and the “lice killed or immobilized (death or knockdown rate)” value (from here on “lice killed or immobilized”) ([2]; 100 μM, 24 h) was 100%.

picrotoxin was tested, and the agonist effect (Phh-RDL [1]) was “no agonist effect”, the “concentration at which GABA-elicited currents were completely inhibited” value (Phh-RDL [1]) was 30 µM and the IC50 (Phh-RDL [1]; [4]) was 1160 ± 230 nM. For the same compound, the “lice killed or immobilized” value ([2]; 100 μM, 24 h) was “not efficient to kill the lice”.

`N#Cc1nn(-c2c(Cl)cc(C(F)(F)F)cc2Cl)c(N)c1[S+]([O-])C(F)(F)F` (stereo not drawn) [fipronil] was tested, and the IC50 (Phh-RDL [1]) was 138 ± 35.1 nM, the agonist effect (Phh-RDL [1]) was “no agonist effect” and the “lice killed or immobilized” value ([2]; 100 μM, 24 h) was 91%.

For `N[C@@H](CCC(=O)O)C(=O)O` [glutamate], the EC50 (Phh-GluCl) was 9300 nM and the Hill coefficient (Phh-GluCl; glutamate concentration-response curve) was 1.9 +/- 0.5.

With `NCCCC(=O)O` [GABA, γ-aminobutyric acid] the EC50 (Phh-RDL [1]) was 16000 nM, the Hill coefficient (Phh-RDL [1]; GABA concentration-response curve) was 2.3 +/- 0.1 and the Emax (Phh-RDL [1]; read-out: maximum current amplitude) was 97.95 ± 0.69%.
